From US20100105727A1, “NOVEL BENZAMIDE DERIVATIVES AND PROCESS FOR THE PREPARTION THEREOF” (DONG-A-PHARM. CO., LTD., priority 2007, published 2010)
pIC50: −log10 of the molar value. Read-outs that look alike come from different tables or passages of the source.

What was measured:
male ICR mice = test system: male ICR mice
Experimental: In order to examine acute toxicity of compounds according to the present invention, the following experiment was carried out.
Over the entire experimental period of 2 weeks, the minimum lethal dose (MLD, mg/kg) of the compound was investigated by the observation of the mortality, body weight and clinical symptoms of animals.

human 5-HT4 receptor = target: T1, human 5-HT4 receptor (Homo sapiens, UniProt Q13639); assay: Binding affinity of compounds for 5-HT4 receptor (radioligand displacement, membrane lysates of COS-7 cells); settings: inhibition of specific binding of 0.595 nM [H3]-AGR113808; COS-7 cell membrane lysates expressing human 5-HT4 receptor
T1 construct: expressed in transfected cells; host or cells: COS-7
T1 sequence (Q13639 whole entry): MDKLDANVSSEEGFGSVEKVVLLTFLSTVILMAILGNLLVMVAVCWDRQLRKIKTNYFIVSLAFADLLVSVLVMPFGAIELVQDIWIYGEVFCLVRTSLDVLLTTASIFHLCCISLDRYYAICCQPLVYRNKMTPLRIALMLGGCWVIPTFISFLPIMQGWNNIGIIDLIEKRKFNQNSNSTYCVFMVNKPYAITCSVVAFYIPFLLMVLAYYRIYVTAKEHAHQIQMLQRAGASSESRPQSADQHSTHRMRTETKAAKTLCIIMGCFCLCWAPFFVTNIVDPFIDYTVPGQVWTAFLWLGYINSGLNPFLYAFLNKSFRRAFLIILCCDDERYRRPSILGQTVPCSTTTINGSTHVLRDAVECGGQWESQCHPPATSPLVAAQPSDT
Experimental: For this purpose, COS-7 cells expressing the human 5-HT4 receptor were constructed and lysed to obtain cell membrane lysates which were then used in binding assay experiments. For binding assay, the membrane lysates were mixed and incubated with different concentrations of test materials and [H3]-AGR113808. […] After incubation was completed, the reaction products were collected in a GF/B glass fiber filter using a Packard cell harvester, and the bound radioactivity was then determined using a liquid cell scintillation counter (Packard TopCount NXT™, Perkin Elmer). Specific binding of the radioligand to the 5-HT4 receptor was calculated by subtracting the non-specific binding of the radioligand from the total radioligand binding. IC50 was calculated from % inhibition of specific binding of the radioligand to the 5-HT4 receptor, with respect to varying concentrations of the test materials.

[1] = oral, single dose of 1 g/10 mL/kg in 1% hydroxypropylmethylcellulose, 5-week old male ICR mice, observed 2 weeks
[2] = male, ICR, mouse, in vivo, po, 2 weeks

SMILES | pIC50 (human 5-HT4 receptor) | Minimum lethal dose (MLD, mg/kg) (male ICR mice; [1]) [mg/kg] | Minimum lethal dose (MLD, mg/kg) (male ICR mice; [2]) [mg/kg]
CCOC(=O)N1CCC(CN2CC[C@H](NC(=O)c3cc(Cl)c(N)cc3OC)[C@H](OC)C2)CC1 (relative stereo) [Compound 1, ethyl 4-[(cis-4-(4-amino-5-chloro-2-methoxybenzamido)-3-methoxypiperidin-1-yl)methyl]piperidine-1-carboxylate] | 6.64 | >1000 | –
CCCOC(=O)N1CCC(CN2CC[C@H](NC(=O)c3cc(Cl)c(N)cc3OC)[C@H](OC)C2)CC1 (relative stereo) [Compound 6, propyl 4-[(cis-4-(4-amino-5-chloro-2-methoxybenzamido)-3-methoxypiperidin-1-yl)methyl]piperidine-1-carboxylate] | 7.03 | >1000 | –
COc1cc(N)c(Cl)cc1C(=O)N[C@H]1CCN(CC2CCN(C(=O)C(C)C)CC2)C[C@H]1OC (relative stereo) [Compound 14, cis-4-amino-5-chloro-N-[1-((1-isobutyrylpiperidin-4-yl)methyl)-3-methoxypiperidin-4-yl]-2-methoxybenzamide] | 6.85 | – | >1000
CCC(=O)N1CCC(CN2CC[C@H](NC(=O)c3cc(Cl)c(N)cc3OC)[C@H](OC)C2)CC1 (relative stereo) [Compound 17, cis-4-amino-5-chloro-N-[1-((1-propionylpiperidin-4-yl)methyl)-3-methoxypiperidin-4-yl]-2-methoxybenzamide] | – | – | >1000
COc1cc(N)c(Cl)cc1C(=O)N[C@H]1CCN(CC2CCN(C(=O)C(C)(C)C)CC2)C[C@H]1OC (relative stereo) [Compound 29, cis-4-amino-5-chloro-N-[1-((1-pivaloylpiperidin-4-yl)methyl)-3-methoxypiperidin-4-yl]-2-methoxybenzamide] | 7.47 | – | >1000
COc1cc(N)c(Cl)cc1C(=O)N[C@H]1CCN(CCc2noc(C)n2)C[C@H]1OC (relative stereo) [Compound 54, cis-4-amino-5-chloro-N-[1-(2-(5-methyl-1,2,4-oxadiazol-3-yl)ethyl)-3-methoxypiperidin-4-yl]-2-methoxybenzamide] | – | – | >1000
COc1cc(N)c(Cl)cc1C(=O)N[C@H]1CCN(CCC(=O)Nc2ccc3ncccc3c2)C[C@H]1OC (relative stereo) [Compound 57, cis-4-amino-5-chloro-N-[1-(3-oxo-3-(quinolin-6-ylamino)propyl)-3-methoxypiperidin-4-yl]-2-methoxybenzamide] | 7.28 | – | –
COc1cc(N)c(Cl)cc1C(=O)N[C@H]1CCN(CCCCCC(=O)Nc2cccc3ncccc23)C[C@H]1OC (relative stereo) [Compound 58, cis-4-amino-5-chloro-N-[1-(6-oxo-6-(quinolin-5-ylamino)hexyl)-3-methoxypiperidin-4-yl]-2-methoxybenzamide] | 7.11 | – | –
COc1cc(N)c(Cl)cc1C(=O)N[C@H]1CCN(CCC(=O)Nc2cc(C)cc(C)n2)C[C@H]1OC (relative stereo) [Compound 59, cis-4-amino-5-chloro-N-[1-(3-oxo-3-(4,6-dimethylpyridin-2-ylamino)propyl)-3-methoxypiperidin-4-yl]-2-methoxybenzamide] | 6.85 | – | >1000
COc1cc(N)c(Cl)cc1C(=O)N[C@H]1CCN(CCCCCC(=O)Nc2ccc3[nH]ccc3c2)C[C@H]1OC (relative stereo) [Compound 62, cis-4-amino-5-chloro-N-[1-(6-oxo-6-(1H-indol-5-ylamino)hexyl)-3-methoxypiperidin-4-yl]-2-methoxybenzamide] | 7.36 | – | –
COc1cc(N)c(Cl)cc1C(=O)N[C@H]1CCN(CC2CCN(C(=O)NC(C)C)CC2)C[C@H]1OC (relative stereo) [Compound 63, 4-[cis-4-(4-amino-5-chloro-2-methoxybenzoylamino)-3-methoxy-piperidin-1-ylmethyl]-piperidine-1-carboxylic acid isopropylamide] | 7.60 | >1000 | –
COc1cc(N)c(Cl)cc1C(=O)N[C@H]1CCN(CC2CCN(C(=O)N(C)C)CC2)C[C@H]1OC (relative stereo) [Compound 64, 4-[cis-4-(4-amino-5-chloro-2-methoxybenzoylamino)-3-methoxy-piperidin-1-ylmethyl]-piperidine-1-carboxylic acid dimethylamide] | 7.54 | – | >1000
COc1cc(N)c(Cl)cc1C(=O)NC1CCN(CCCOc2ccc(F)cc2)CC1OC (stereo not shown) [Cisapride, cisapride, reference compound] | – | – | >1000

The next lines start with results.

pIC50 (human 5-HT4 receptor) | SMILES | Minimum lethal dose (MLD, mg/kg) (male ICR mice; [1]) [mg/kg] | Minimum lethal dose (MLD, mg/kg) (male ICR mice; [2]) [mg/kg]
6.76 | COc1cc(N)c(Cl)cc1C(=O)N[C@H]1CCN(CC2CCN(C(=S)CCC(C)C)CC2)C[C@H]1OC (relative stereo) [Compound 37, cis-4-amino-5-chloro-N-[1-((1-(4-methylpentanethioyl)piperidin-4-yl)methyl)-3-methoxypiperidin-4-yl]-2-methoxybenzamide] | – | –
6.66 | COc1cc(N)c(Cl)cc1C(=O)N[C@H]1CCN(CC2CCN(C(=S)C(C)(C)C)CC2)C[C@H]1OC (relative stereo) [Compound 38, cis-4-amino-5-chloro-N-[1-((1-(2,2-dimethylpropanethioyl)piperidin-4-yl)methyl)-3-methoxypiperidin-4-yl]-2-methoxybenzamide] | – | –
7.33 | CCSC(=O)N1CCC(CN2CC[C@H](NC(=O)c3cc(Cl)c(N)cc3OC)[C@H](OC)C2)CC1 (relative stereo) [Compound 39, S-ethyl 4-[(cis-4-(4-amino-5-chloro-2-methoxybenzamido)-3-methoxypiperidin-1-yl)methyl]piperidine-1-carbothioate] | – | –
7.33 | COc1cc(N)c(Cl)cc1C(=O)N[C@H]1CCN(CC2CCN(S(=O)(=O)C(C)C)CC2)C[C@H]1OC (relative stereo) [Compound 42, cis-4-amino-5-chloro-N-[1-((1-(isopropylsulfonyl)piperidin-4-yl)methyl)-3-methoxypiperidin-4-yl]-2-methoxybenzamide] | – | –
6.78 | COc1cc(N)c(Cl)cc1C(=O)N[C@H]1CCN(CC2CCN(S(C)(=O)=O)CC2)C[C@H]1OC (relative stereo) [Compound 43, cis-4-amino-5-chloro-N-[1-((1-(methylsulfonyl)piperidin-4-yl)methyl)-3-methoxypiperidin-4-yl]-2-methoxybenzamide] | – | –
7.07 | COc1cc(N)c(Cl)cc1C(=O)N[C@H]1CCN(CCCCCC(=O)Nc2cc(C)cc(C)n2)C[C@H]1OC (relative stereo) [Compound 60, cis-4-amino-5-chloro-N-[1-(6-oxo-6-(4,6-dimethylpyridin-2-ylamino)hexyl)-3-methoxypiperidin-4-yl]-2-methoxybenzamide] | – | –
7.32 | COc1cc(N)c(Cl)cc1C(=O)N[C@H]1CCN(CCC(=O)Nc2ccc3[nH]ccc3c2)C[C@H]1OC (relative stereo) [Compound 61, cis-4-amino-5-chloro-N-[1-(3-oxo-3-(1H-indol-5-ylamino)propyl)-3-methoxypiperidin-4-yl]-2-methoxybenzamide] | – | –
6.94 | COc1cc(N)c(Cl)cc1C(=O)N[C@@H]1CCN(CC2CCN(S(C)(=O)=O)CC2)C[C@@H]1OC [Compound 44, (3S,4R)-4-amino-5-chloro-N-[1-((1-(methylsulfonyl)piperidin-4-yl)methyl)-3-methoxypiperidin-4-yl]-2-methoxybenzamide] | – | –
